# US20030216324A1, “Airway mucus secretion inhibitors” (priority 2000, published 2003)
# What was measured:
# [1] = test system: augmentative mucus secretion in guinea pig trachea; experiment: Suppressive effect on augmentative secretion by antigen challenge (ovalbumin-sensitized guinea pig, mucus score by PAS-Alcian Blue); type: in vivo; settings: OA-sensitized guinea pig; test drug 100 mg/kg oral; 5% OA inhaled 30 minutes after drug; trachea removed 10 minutes later
# Description: Suppressive Effect on Augmentative Secretion by Antigen Challenge
# Egg albumin (Ovalbumin:OA) (70 mg/kg) is administered and sensitized to guinea pig into the peritoneal cavity on the first experiment day and 8th day. The test drug (100 mg/kg) was oral administered to the sensitized guinea pig on 22nd experiment day. 5%OA was inhaled for 2 minutes 30 minutes after the test drug was administered, and the trachea was removed 10 minutes later. It was dyed with PAS-Alcian Blue, and the augmentative mucus secretion was evaluated according to the level of the decrease in mucus score.
# As a test drug, 2-[5-amino-6-oxo-2-phenyl-1,6-dihydro-1-pyrimidinyl]-N-[1-[[5-(t-butyl)-1,3,4-oxadiazole-2-yl]carbonyl]-2-methylpropyl]acetamide (Compound 34) was used.
# [2] = test system: augmentative airway mucus secretion; settings: airway inflammation model by ozone exposure (lesion similar to chronic bronchitis); cited from earlier work
compound,measurement,setting,value
"CC(C)C(NC(=O)Cn1c(-c2ccccc2)ncc(N)c1=O)C(=O)c1nnc(C(C)(C)C)o1 (centres unmarked) [Compound 34, 2-[5-amino-6-oxo-2-phenyl-1,6-dihydro-1-pyrimidinyl]-N-[1-[[5-(t-butyl)-1,3,4-oxadiazole-2-yl]carbonyl]-2-methylpropyl]acetamide]","mucus score (augmentative mucus secretion, PAS-Alcian Blue dye)",[1],intentionally suppressed
CC(C)(C)C(=O)Oc1ccc(S(=O)(=O)Nc2ccccc2C(=O)NCC(=O)O)cc1 [ONO-5046],augmentative airway mucus secretion,[2],suppress
